Assay results from US20250179013A1, “INHIBITORS OF RNA HELICASE DHX9 AND USES THEREOF” (ACCENT THERAPEUTICS, INC., priority 2022, published 2025).
pIC50: −log10 of the molar value. Like-named read-outs stand apart in the source and are kept apart here.

Biological target: T1, Human recombinant DHX9 protein (Homo sapiens, UniProt Q08211)
T1 construct: purchased Viva
Assay: DHX9 ATPase assay (ADP-Glo biochemical assay)
Details: for DHX9 Biochemical Max Inhibition: maximum inhibition in ATPase assay, 10 μM Aurintricarboxylic acid = 100%

[1] = read-out: DHX9 Biochemical Inflection Point

T1 sequence (Q08211 whole entry): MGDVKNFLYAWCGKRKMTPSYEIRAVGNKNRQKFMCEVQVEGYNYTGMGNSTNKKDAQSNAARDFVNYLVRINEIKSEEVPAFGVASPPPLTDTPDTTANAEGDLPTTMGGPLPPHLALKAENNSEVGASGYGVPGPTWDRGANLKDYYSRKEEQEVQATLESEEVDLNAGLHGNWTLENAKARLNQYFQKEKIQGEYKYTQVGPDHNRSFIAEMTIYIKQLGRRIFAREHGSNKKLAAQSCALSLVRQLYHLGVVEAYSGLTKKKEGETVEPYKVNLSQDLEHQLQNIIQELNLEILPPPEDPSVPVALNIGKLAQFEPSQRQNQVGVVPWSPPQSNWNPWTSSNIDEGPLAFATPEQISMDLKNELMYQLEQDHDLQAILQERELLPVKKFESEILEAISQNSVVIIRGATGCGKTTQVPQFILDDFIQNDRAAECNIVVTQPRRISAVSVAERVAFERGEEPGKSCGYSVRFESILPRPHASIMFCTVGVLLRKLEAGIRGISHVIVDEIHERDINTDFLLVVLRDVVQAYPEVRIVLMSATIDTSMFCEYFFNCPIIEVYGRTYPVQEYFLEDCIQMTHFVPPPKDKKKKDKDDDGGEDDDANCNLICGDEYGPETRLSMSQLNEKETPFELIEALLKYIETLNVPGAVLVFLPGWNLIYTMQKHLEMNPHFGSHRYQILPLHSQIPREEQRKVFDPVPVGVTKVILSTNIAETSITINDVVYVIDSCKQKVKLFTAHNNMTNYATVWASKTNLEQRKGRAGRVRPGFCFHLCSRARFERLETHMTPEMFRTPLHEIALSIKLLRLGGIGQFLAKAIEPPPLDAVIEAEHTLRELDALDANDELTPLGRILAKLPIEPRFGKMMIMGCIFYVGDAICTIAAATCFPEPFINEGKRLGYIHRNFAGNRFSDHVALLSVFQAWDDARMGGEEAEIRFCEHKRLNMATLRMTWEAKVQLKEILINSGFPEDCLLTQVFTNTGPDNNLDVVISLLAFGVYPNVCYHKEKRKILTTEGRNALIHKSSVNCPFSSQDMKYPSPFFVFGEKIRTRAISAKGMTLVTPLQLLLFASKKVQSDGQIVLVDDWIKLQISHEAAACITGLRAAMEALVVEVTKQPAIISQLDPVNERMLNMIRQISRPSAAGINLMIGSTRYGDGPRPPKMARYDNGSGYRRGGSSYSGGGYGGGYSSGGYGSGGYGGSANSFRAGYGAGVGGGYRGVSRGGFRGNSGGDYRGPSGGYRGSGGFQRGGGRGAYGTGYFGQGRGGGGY

CS(=O)(=O)Nc1cccc(NC(=O)c2nc(-c3ccccc3)cs2)c1 [Example 42]
DHX9 Biochemical Max Inhibition: 71.4%
pIC50 [1]: 6.26

CS(=O)(=O)Nc1cccc(NC(=O)c2cc(-c3ccccc3)c(Br)s2)c1 [Example 98, 5-bromo-N-(3-(methylsulfonamido)phenyl)-4-phenylthiophene-2-carboxamide]
DHX9 Biochemical Max Inhibition: 77.7%
pIC50 [1]: 6.27

Cc1cc(C)n(Cc2ccc(C(=O)Nc3cccc(NS(C)(=O)=O)c3)o2)n1 [Example 34]
DHX9 Biochemical Max Inhibition: 70.4%
pIC50 [1]: 5.31

CS(=O)(=O)Nc1cccc(NC(=O)c2ccccc2N2CCCCC2)c1 [Example 9]
DHX9 Biochemical Max Inhibition: 48.3%
pIC50 [1]: 5.40

CS(=O)(=O)Nc1cccc(NC(=O)c2cc(C(=O)NCc3ccc4[nH]ccc4c3)cs2)c1 [Example 145]
DHX9 Biochemical Max Inhibition: 67.7%
pIC50 [1]: 6.98

CC(C)Oc1ccccc1NC(=O)c1csc(C(=O)Nc2cccc(NS(C)(=O)=O)c2)c1 [Example 135]
DHX9 Biochemical Max Inhibition: 65.6%
pIC50 [1]: 6.68

CS(=O)(=O)Nc1cccc(NC(=O)c2cc(-c3ccccc3)cs2)n1 [Example 156, N-(6-methanesulfonamidopyridin-2-yl)-4-phenylthiophene-2-carboxamide]
pIC50: 5.72
DHX9 Biochemical Max Inhibition: 63.7%

COc1ccc(-c2cc(C(=O)Nc3cccc(NS(C)(=O)=O)c3)n[nH]2)cc1 [Example 78]
DHX9 Biochemical Max Inhibition: 61.5%
pIC50 [1]: 6.16

CS(=O)(=O)Nc1cccc(NC(=O)c2cc(C(=O)NCC3(O)CCCCC3)cs2)c1 [Example 105]
DHX9 Biochemical Max Inhibition: 70.3%
pIC50 [1]: 6.68

CS(=O)(=O)Nc1cccc(NC(=O)c2cccc(OCc3cccs3)c2)c1 [Example 28]
DHX9 Biochemical Max Inhibition: 76.4%
pIC50 [1]: 5.39

CS(=O)(=O)Nc1cccc(NC(=O)c2cc(C(=O)Nc3nc4ccccc4[nH]3)cs2)c1 [Example 146]
DHX9 Biochemical Max Inhibition: 71.2%
pIC50 [1]: 7.41

CS(=O)(=O)Nc1cccc(NC(=O)c2ccc(-c3nnn[nH]3)cc2)c1 [Example 21]
DHX9 Biochemical Max Inhibition: 72.4%
pIC50 [1]: 5.41

Cc1cc(C(=O)Nc2cccc(NS(C)(=O)=O)c2)c(C)n1C1CC1 [Example 25]
DHX9 Biochemical Max Inhibition: 67.1%
pIC50 [1]: 5.63

COc1ccc(C)c(-c2csc(C(=O)Nc3cccc(NS(C)(=O)=O)c3)c2)c1 [Example 68]
DHX9 Biochemical Max Inhibition: 70.3%

CS(=O)(=O)Nc1cccc(NC(=O)c2cc(C(=O)Nc3ccccc3Oc3ccccc3)cs2)c1 [Example 115]
DHX9 Biochemical Max Inhibition: 75%
pIC50 [1]: 6.36

CS(=O)(=O)Nc1cccc(NC(=O)c2csc(NC3CC3)n2)c1 [Example 13]
DHX9 Biochemical Max Inhibition: 52.5%
pIC50 [1]: 5.62

CS(=O)(=O)Nc1cccc(NC(=O)c2cc(C(=O)Nc3ccc(OC(F)(F)F)cc3)cs2)c1 [Example 108]
DHX9 Biochemical Max Inhibition: 64.4%
pIC50 [1]: 6.15

CS(=O)(=O)Nc1cccc(NC(=O)c2cnn(Cc3ccccc3)c2)c1 [Example 35, 1-benzyl-N-(3-methanesulfonamidophenyl)pyrazole-4-carboxamide]
DHX9 Biochemical Max Inhibition: 69.3%
pIC50 [1]: 5.83

CCn1ncc(C(=O)Nc2cccc(NS(C)(=O)=O)c2)c1C1CC1 [Example 18]
DHX9 Biochemical Max Inhibition: 58.6%
pIC50 [1]: 4.03

CS(=O)(=O)Nc1cccc(NC(=O)c2cnn(-c3ncccn3)c2)c1 [Example 43]
DHX9 Biochemical Max Inhibition: 68.7%
pIC50 [1]: 6.43

CS(=O)(=O)Nc1cccc(NC(=O)c2cc(C(=O)NC3Cc4ccccc4C3)cs2)c1 [Example 112]
DHX9 Biochemical Max Inhibition: 68.9%
pIC50 [1]: 7.00

Cc1ccc(NC(=O)c2csc(C(=O)Nc3cccc(NS(C)(=O)=O)c3)c2)cc1Cl [Example 104]
DHX9 Biochemical Max Inhibition: 67.3%
pIC50 [1]: 6.30

CS(=O)(=O)Nc1cccc(NC(=O)c2cc(C(=O)Nc3cc(-c4ccccc4)[nH]n3)cs2)c1 [Example 148]
DHX9 Biochemical Max Inhibition: 58.2%
pIC50 [1]: 5.27

Cc1ccc(Nc2cccc(C(=O)Nc3cccc(NS(C)(=O)=O)c3)c2)nn1 [Example 10]
DHX9 Biochemical Max Inhibition: 79.8%
pIC50 [1]: 5.81

CS(=O)(=O)Nc1cccc(NC(=O)c2ccc(-c3ccccc3)cc2)c1 [Example 38]
DHX9 Biochemical Max Inhibition: 38.6%
pIC50 [1]: 6.46

COc1cc(Cl)cc(NC(=O)c2csc(C(=O)Nc3cccc(NS(C)(=O)=O)c3)c2)c1 [Example 125]
DHX9 Biochemical Max Inhibition: 71.7%
pIC50 [1]: 7.19

CS(=O)(=O)Nc1cccc(NC(=O)c2cc(C(=O)NCc3nc4ccccc4[nH]3)cs2)c1 [Example 141]
DHX9 Biochemical Max Inhibition: 66.3%
pIC50 [1]: 7.03

COCc1cccc(NC(=O)c2csc(C(=O)Nc3cccc(NS(C)(=O)=O)c3)c2)c1 [Example 134]
DHX9 Biochemical Max Inhibition: 66.9%
pIC50 [1]: 7.24

CS(=O)(=O)Nc1cccc(NC(=O)c2cc(C(=O)NCc3ccc(N4CCOCC4)cc3)cs2)c1 [Example 116]
DHX9 Biochemical Max Inhibition: 74.5%
pIC50 [1]: 7.15

CS(=O)(=O)Nc1cccc(NC(=O)c2cc(C(=O)NCc3n[nH]c4ccccc34)cs2)c1 [Example 144]
DHX9 Biochemical Max Inhibition: 65.9%
pIC50 [1]: 6.84

CC(C)Oc1ccc(NC(=O)c2csc(C(=O)Nc3cccc(NS(C)(=O)=O)c3)c2)cc1 [Example 118]
DHX9 Biochemical Max Inhibition: 66.2%
pIC50 [1]: 7.00

CS(=O)(=O)Nc1cccc(NC(=O)c2cc(C(=O)NC3CCc4ccccc43)cs2)c1 (stereo not drawn) [Example 136]
DHX9 Biochemical Max Inhibition: 72.9%
pIC50 [1]: 6.90

CS(=O)(=O)Nc1cccc(NC(=O)c2cc(C(=O)Nc3ccc(CCO)cc3)cs2)c1 [Example 149]
DHX9 Biochemical Max Inhibition: 69.8%
pIC50 [1]: 7.29

COc1ccc(NC(=O)c2csc(C(=O)Nc3cccc(NS(C)(=O)=O)c3)c2)cc1 [Example 130]
DHX9 Biochemical Max Inhibition: 69.2%
pIC50 [1]: 6.49

Cc1nc(COc2ccc(C(=O)Nc3cccc(NS(C)(=O)=O)c3)cc2)cs1 [Example 22]
DHX9 Biochemical Max Inhibition: 71.7%
pIC50 [1]: 5.91

Cc1cccc(-c2csc(C(=O)Nc3cccc(NS(C)(=O)=O)c3)c2)c1 [Example 47]
DHX9 Biochemical Max Inhibition: 67.7%
pIC50 [1]: 6.58

CC(C)Oc1cccc(NC(=O)c2csc(C(=O)Nc3cccc(NS(C)(=O)=O)c3)c2)c1 [Example 121]
DHX9 Biochemical Max Inhibition: 68.9%
pIC50 [1]: 5.97

CS(=O)(=O)Nc1cccc(NC(=O)c2csc(-c3ccc(F)cc3)n2)c1 [Example 24]
DHX9 Biochemical Max Inhibition: 62.5%
pIC50 [1]: 5.98

CS(=O)(=O)Nc1cccc(NC(=O)c2cc(-c3ccccc3)c(C(=O)O)s2)c1 [Example 101, 5-[(3-methanesulfonamidophenyl)carbamoyl]-3-phenylthiophene-2-carboxylic acid]
DHX9 Biochemical Max Inhibition: 79.1%
pIC50 [1]: 7.27

Cn1c(=O)n(C)c2cc(NC(=O)c3csc(C(=O)Nc4cccc(NS(C)(=O)=O)c4)c3)ccc21 [Example 131]
DHX9 Biochemical Max Inhibition: 65.8%
pIC50 [1]: 7.28

CS(=O)(=O)Nc1cccc(NC(=O)c2ccc(OCc3ccccc3)cc2)c1 [Example 3]
DHX9 Biochemical Max Inhibition: 44.3%
pIC50 [1]: 5.91

CS(=O)(=O)Nc1cccc(NC(=O)c2csc(C3CC3)n2)c1 [Example 32]
DHX9 Biochemical Max Inhibition: 67.9%
pIC50 [1]: 5.24

Cc1ccccc1-c1csc(C(=O)Nc2cccc(NS(C)(=O)=O)c2)c1 [Example 46]
DHX9 Biochemical Max Inhibition: 73.9%
pIC50 [1]: 6.91

CS(=O)(=O)Nc1cccc(NC(=O)c2ccc(-n3cccc3)cc2)c1 [Example 23]
DHX9 Biochemical Max Inhibition: 51.4%
pIC50 [1]: 6.03

Cc1nc(-c2cc(C(=O)Nc3cccc(NS(C)(=O)=O)c3)co2)cs1 [Example 7]
DHX9 Biochemical Max Inhibition: 73.3%
pIC50 [1]: 6.09

CS(=O)(=O)Nc1cccc(NC(=O)c2cc(C(=O)NCCc3c[nH]c4ccccc34)cs2)c1 [Example 140]
DHX9 Biochemical Max Inhibition: 70.1%
pIC50 [1]: 6.72

CS(=O)(=O)Nc1cccc(NC(=O)c2cc(C(=O)Nc3cccc(-c4cccnc4)c3)cs2)c1 [Example 133]
DHX9 Biochemical Max Inhibition: 70.3%
pIC50 [1]: 6.77

CC(C)(C)NC(=O)c1ccc(NC(=O)c2csc(C(=O)Nc3cccc(NS(C)(=O)=O)c3)c2)cc1 [Example 127]
DHX9 Biochemical Max Inhibition: 68.3%
pIC50 [1]: 6.94

CS(=O)(=O)Nc1cccc(NC(=O)c2cc(C(=O)Nc3ccc(-c4ccncc4)cc3)cs2)c1 [Example 128]
DHX9 Biochemical Max Inhibition: 64.6%
pIC50 [1]: 6.84

CN(C)C(=O)c1ccc(NC(=O)c2csc(C(=O)Nc3cccc(NS(C)(=O)=O)c3)c2)cc1 [Example 114]
DHX9 Biochemical Max Inhibition: 73.5%
pIC50 [1]: 7.15

CS(=O)(=O)Nc1cccc(NC(=O)c2cc(C(=O)Nc3ccccc3CC#N)cs2)c1 [Example 138]
DHX9 Biochemical Max Inhibition: 76.6%
pIC50 [1]: 6.94

COc1ccc(OC)c(CCNC(=O)c2csc(C(=O)Nc3cccc(NS(C)(=O)=O)c3)c2)c1 [Example 142]
DHX9 Biochemical Max Inhibition: 72.6%
pIC50 [1]: 6.78

Cc1nnc(-c2ccc(C(=O)Nc3cccc(NS(C)(=O)=O)c3)cc2)o1 [Example 11]
DHX9 Biochemical Max Inhibition: 47.5%
pIC50 [1]: 5.25

CS(=O)(=O)Nc1cccc(NC(=O)c2cc(C(=O)Nc3ccc(Oc4ccccc4)cc3)cs2)c1 [Example 117]
DHX9 Biochemical Max Inhibition: 52.7%
pIC50 [1]: 6.16

CC(NC(=O)c1csc(C(=O)Nc2cccc(NS(C)(=O)=O)c2)c1)c1ccccc1 (stereo not drawn) [Example 110]
DHX9 Biochemical Max Inhibition: 68.9%
pIC50 [1]: 7.09

Cc1nc(-c2cccc(NC(=O)c3csc(C(=O)Nc4cccc(NS(C)(=O)=O)c4)c3)c2)cs1 [Example 147]
DHX9 Biochemical Max Inhibition: 64.7%
pIC50 [1]: 6.64

CS(=O)(=O)Nc1cccc(NC(=O)c2cccc(-c3ccccc3)c2)c1 [Example 37]
DHX9 Biochemical Max Inhibition: 67%
pIC50 [1]: 5.76

Cc1c(NC(=O)c2csc(C(=O)Nc3cccc(NS(C)(=O)=O)c3)c2)c(=O)n(-c2ccccc2)n1C [Example 107]
DHX9 Biochemical Max Inhibition: 74.6%
pIC50 [1]: 6.77

CS(=O)(=O)Nc1cccc(NC(=O)c2csc(S(=O)(=O)N3CCOCC3)c2)c1 [Example 30]
DHX9 Biochemical Max Inhibition: 69.1%
pIC50 [1]: 4.47
